Laboratory results reported in publication PMC12337082 (Journal of Biochemical and Molecular Toxicology, 2025).

Tests used:
MCF‐7 [1] = assay: MTT cell viability assay, MCF‐7; format: cell-based, human; conditions: for IC50: Homo sapiens, MCF7, MTT
Text: (§1) MCF‐7, MDA‐MB‐231, and L‐929 mouse fibroblast cell lines were obtained from the American Type Culture Collection (ATCC, Manassas, Virginia, USA). MCF‐7 is a hormone‐responsive, differentiated mammary epithelium cell line with an ER+, PR+, and HER2‐ pattern (ATCC, HTB‐22). MDA‐MB‐231 is a triple‐negative differentiated mammary epithelium cell line (ATCC, HTB‐26). The L‐929 mouse fibroblast cell line is derived from the normal subcutaneous connective tissue of a mouse and is commonly used in cytotoxicity assays (ATCC, CCL‐1). All cell lines were cultured in DMEM medium (Dulbecco's Modified Eagle Medium, Gibco), supplemented with 10% fetal bovine serum (Gibco), 1% glutamine, and penicillin/streptomycin (Gibco) in a humidified atmosphere containing 5% CO2 at 37°C. Cell viability was tested using Trypan blue staining.
(§2) The MTT [3‐(4,5‐dimethylthiazol‐2‐yl)−2,5‐diphenyltetrazolium bromide] assay is a colorimetric assay for determining cell metabolic activity. In the MTT assay, the yellow dye MTT that dissolves in water is changed by mitochondrial reductase into a purple formazan that is non‐soluble. The water‐insoluble formazan produced is solubilized in a solubilization buffer, and absorbances are detected.
(§3) In 96‐well plates, the cells were cultivated at a density of 5 × 10^3 cells/well using 100 µL medium. […] 10 μL of the MTT labeling reagent (final concentration 0.5 mg/mL) were added to each well at the end of the incubation periods, and the wells were incubated for an additional 4 h. Next, each well received 100 μL of solubilization buffer (10% SDS in 0.01 M HCl) and was overnight incubated, and the absorbance of formazan products was evaluated at 550 nm using a multi‐mode microplate reader (Synergy H1, Biotech Instruments Inc., Vermont, USA). The results were normalized relative to the absorbances of calculated percent concentrations of DMSO. All tests involved three replicates with three independent experiments.
(§4) All statistical evaluations, including t‐tests and IC50 values, were calculated using the GraphPad Prism software tool (v6.0, GraphPad Software Inc., San Diego, USA). Statistical significance was defined as p ˂ 0.05 (*p < 0.05, **p < 0.01, ***p < 0.001, ****p < 0.0001).

[2] = system: L‐929 mouse fibroblast cell line; assay: MTT cell viability assay, L‐929 control fibroblasts; format: cell-based
Text: as §1, §2, §3, §4

MCF‐7 [3] = assay: Annexin V/PI staining, Tali image‐based cytometry, MCF‐7; format: cell-based, human; conditions: MCF‐7, 24 h
Text: To assess apoptosis and cell death, cells were stained with Annexin V‐PI dyes (Tali Apoptosis Kit‐Annexin V Alexa Fluor 488 and PI‐, Molecular Probes A10788, Invitrogen) and quantified using Tali Image‐Based Cytometer (Invitrogen) and fluorescence microscopy (Olympus CKX41 Inverted Phase Contrast Fluorescence Microscope furbished with reflected fluorescence illuminator CKX‐RFA).
To assess whether our compounds produce their cytotoxic effects through induction of apoptosis, apoptosis was investigated using Annexin V/PI labeling and MMP methods (Figures 4A−C). In addition, by utilizing TALI image‐based cytometry and fluorescent microscopy, the number of cells was analyzed for different concentrations of agents (Table 4).

MCF‐7 [4] = assay: Mitochondrial membrane potential (JC‐1) apoptosis assay, MCF‐7; format: cell-based, human; conditions: MCF‐7, 50 μM, 24 h, MMP assay
Protocol: (§5) Apoptosis was also investigated by evaluating mitochondrial membrane potential changes (MMP assay). MCF‐7, MDA‐MB‐231, and L‐929 cells were stained with JC‐1 dye according to the manufacturer's protocols (JC‐1 MMP Assay Kit, KA1324, Abnova). The apoptotic to healthy cell ratio was calculated using absorbances collected from two different fluorescence channels (535/595 for healthy cells, 485/535 for apoptotic cells) (Synergy H1, Biotech Instruments Inc., Vermont, USA).

MDA‐MB‐231 = assay: Mitochondrial membrane potential (JC‐1) apoptosis assay, MDA‐MB‐231; format: cell-based, human; conditions: MDA‐MB‐231, 50 μM, 24 h, MMP assay
Protocol: as §5

L‐929 = assay: Mitochondrial membrane potential (JC‐1) apoptosis assay, L‐929; format: cell-based, mouse; conditions: L‐929, 50 μM, 24 h, MMP assay
Protocol: as §5

COX‐2 [5] = assay: Western blot COX‐2 protein expression, MCF‐7; format: cell-based, human; conditions: 24 h
Protocol: (§6) Total protein levels were measured using the Take3 Multi‐Volume Plate (Synergy H1, BioTek Instruments Inc., Vermont, USA). In accordance with the classical protocol, transferred proteins were exposed to the following primary antibodies: Beta‐actin (NB600‐501, Novus Biologicals), Bax (SPM336, NBP2‐32809), Bcl‐2 (100/D5, NBP2‐15200), cleaved PARP (194C1439, NBP2‐27335), and COX‐2 (D‐12:sc‐166475, Santa Cruz). The bands were visualized with chemiluminescent HRP substrates (Western Bright ECL‐Advansta, K‐12045‐050). Using a chemiluminescence imaging system (Celvin S, BioStep), the relative quantification was done based on the level of β‐actin proteins.

COX‐2 [6] = assay: Western blot COX‐2 protein expression, MDA‐MB‐231; format: cell-based, human; conditions: 24 h
Protocol: as §6

PGE2 release [7] = assay: PGE2 ELISA, MCF‐7; format: cell-based, human; conditions: Homo sapiens, MCF7; MCF‐7, 50 µM, 24 h
Protocol: (§7) PGE2 ELISA kit (ENZO, ADI‐900‐001) was used to determine prostaglandin synthesis levels. MCF‐7 and MDA‐MB‐231 breast cancer cells were cultured at a density of 1 × 10^6 cells/well in a 6‐well culture dish. […] Following 24 h of incubation, the medium was replaced with a fresh one, 10 µM arachidonic acid was added, and it was further incubated for 1 h. The PGE2 levels were determined according to the kit protocol.

PGE2 release [8] = assay: PGE2 ELISA, MDA‐MB‐231; format: cell-based, human; conditions: Homo sapiens; MDA‐MB‐231, 50 µM, 24 h
Protocol: as §7

c‐PARP = assay: Western blot cleaved PARP, MDA‐MB‐231; format: cell-based, human; conditions: MDA‐MB‐231, 24 h, all concentrations (50 and 75 µM); not measurable in MCF‐7
Protocol: as §6

CCc1cccc2c3c([nH]c12)C(CC)(CC(=O)N/N=C/c1ccc(OC)cc1)OCC3 (racemic) [SGK 206, 2‐(1,8‐Diethyl‐1,3,4,9‐tetrahydropyrano[3,4‐b]indole‐1‐yl) acetic acid[(4‐methoxyphenyl)methylene]acetohydrazide]
IC50 (MCF‐7 [1]; MCF‐7, 24 h): 37 ± 1.74 µM
IC50 (MCF‐7 [1]; MCF‐7, 48 h): 34 ± 5.7 µM
IC50 (MCF‐7 [1]; MCF‐7, 72 h): 26 ± 0.66 µM
Selectivity index (SI) (MCF‐7 [1]; MCF‐7 in comparison to L‐929, 24 h): 1.93
Selectivity index (SI) (MCF‐7 [1]; MCF‐7 in comparison to L‐929, 48 h): 1.4
Selectivity index (SI) (MCF‐7 [1]; MCF‐7 in comparison to L‐929, 72 h): 1.91
IC50 ([2]; L‐929, 24 h): 71.3 ± 2.92 µM
IC50 ([2]; L‐929, 48 h): 47.9 ± 1.2 µM
IC50 ([2]; L‐929, 72 h): 49.7 ± 1.64 µM
IC50 ([2]; Mus musculus, L929, 24 h, L‐929, 24 h): 71 µM
IC50 ([2]; Mus musculus, L929, 48 h, L‐929, 48 h): 47 µM
IC50 ([2]; Mus musculus, L929, 72 h, L‐929, 72 h): 49 µM
Apoptotic cells (MCF‐7 [3]; 25 µM): 2%
Dead cells (MCF‐7 [3]; 25 µM): 9%
Live cells (MCF‐7 [3]; 25 µM): 89%
Apoptotic cells (MCF‐7 [3]; 50 µM): 4%
Dead cells (MCF‐7 [3]; 50 µM): 15%
Live cells (MCF‐7 [3]; 50 µM): 81%
Apoptotic cells (MCF‐7 [3]; 75 µM): 19%
Dead cells (MCF‐7 [3]; 75 µM): 19%
Live cells (MCF‐7 [3]; 75 µM): 62%
Increase in apoptosis compared to the control group (MCF‐7 [4]): 48%
Increase in apoptosis compared to the control group (MDA‐MB‐231): 57%
Increase in apoptosis compared to the control group (L‐929): 8%
Decrease in COX‐2 protein expression compared to the control group (COX‐2 [5]; MCF‐7, 50 µM): 30%
Decrease in COX‐2 protein expression compared to the control group (COX‐2 [5]; MCF‐7, 75 µM): 41%
Decrease in COX‐2 protein expression compared to the control group (COX‐2 [6]; MDA‐MB‐231, 50 µM): 16%
Decrease in COX‐2 protein expression compared to the control group (COX‐2 [6]; MDA‐MB‐231, 75 µM): 37%
inhibition at 50 µM (PGE2 release [7]): 90%
inhibition at 50 µM (PGE2 release [8]): 91%
c‐PARP (89‐kD fragment) protein change (c‐PARP): consistent activation
